Assay results: ChEMBL document CHEMBL3046898, “Synthesis and characterization of flurbiprofen hydrazide derivatives as potential anti-HCV, anticancer and antimicrobial agents” (2013)
Activity calls are given as the source filed them. No cut-off for these calls is given here.

Columns and labels:
Hepacivirus hominis = assay: Inhibition of HCV N-terminal His-tagged NS5B RNA dependent RNA polymerase expressed in Escherichia coli DH5alpha using poly rA/U12 as primer at 200 uM after 60 mins by liquid scintillation counting
Pichia membranifaciens = assay: Antifungal activity against Pichia membranifaciens at 10 mg/ml after 48 hrs by disc diffusion method; type: functional, organism-based
Photorhabdus luminescens [1] = assay: Antibacterial activity against Photorhabdus luminescens at 6.25 to 200 ug/ml after 24 hrs by microwell dilution method; type: functional, organism-based
Micrococcus lylae [2] = assay: Antibacterial activity against Micrococcus lylae at 6.25 to 200 ug/ml after 24 hrs by microwell dilution method; type: functional, organism-based
[3] = test system: Schwanniomyces occidentalis; assay: Antifungal activity against Schwanniomyces occidentalis at 10 mg/ml after 48 hrs by disc diffusion method; type: functional, organism-based
Staphylococcus aureus [4] = assay: Antibacterial activity against Staphylococcus aureus at 6.25 to 200 ug/ml after 24 hrs by microwell dilution assay; type: functional, organism-based
Nakaseomyces glabratus = assay: Antifungal activity against Candida glabrata at 10 mg/ml after 48 hrs by disc diffusion method; type: functional, organism-based
[5] = test system: Acinetobacter radioresistens; assay: Antibacterial activity against Acinetobacter radioresistens at 6.25 to 200 ug/ml after 24 hrs by microwell dilution method; type: functional, organism-based
Kluyveromyces marxianus = assay: Antifungal activity against Kluyveromyces marxianus at 10 mg/ml after 48 hrs by disc diffusion method; type: functional, organism-based
Staphylococcus cohnii [6] = assay: Antibacterial activity against Staphylococcus cohnii at 10 mg/ml after 24 hrs by disc diffusion method; type: functional
Pseudomonas aeruginosa [7] = assay: Antibacterial activity against Pseudomonas aeruginosa at 6.25 to 200 ug/ml after 24 hrs by microwell dilution method; type: functional, organism-based
Salmonella paratyphi [8] = assay: Antibacterial activity against Salmonella paratyphi at 6.25 to 200 ug/ml after 24 hrs by microwell dilution method; type: functional, organism-based; conditions: Salmonella enterica subsp. enterica serovar Paratyphi A
Staphylococcus cohnii [9] = assay: Antibacterial activity against Staphylococcus cohnii at 6.25 to 200 ug/ml after 24 hrs by microwell dilution assay; type: functional, organism-based
[10] = test system: Acinetobacter radioresistens; assay: Antibacterial activity against Acinetobacter radioresistens at 10 mg/ml after 24 hrs by disc diffusion method; type: functional, organism-based
Candida tropicalis = assay: Antifungal activity against Candida tropicalis at 10 mg/ml after 48 hrs by disc diffusion method; type: functional, organism-based
Micrococcus luteus [11] = assay: Antibacterial activity against Micrococcus luteus at 6.25 to 200 ug/ml after 24 hrs by microwell dilution method; type: functional, organism-based
Escherichia coli [12] = assay: Antibacterial activity against Escherichia coli at 10 mg/ml after 24 hrs by disc diffusion method; type: functional, organism-based
Staphylococcus aureus [13] = assay: Antibacterial activity against Staphylococcus aureus at 10 mg/ml after 24 hrs by disc diffusion method; type: functional
Photorhabdus luminescens [14] = assay: Antibacterial activity against Photorhabdus luminescens at 10 mg/ml after 24 hrs by disc diffusion method; type: functional, organism-based
Proteus vulgaris [15] = assay: Antibacterial activity against Proteus vulgaris at 6.25 to 200 ug/ml after 24 hrs by microwell dilution method; type: functional, organism-based
Proteus vulgaris [16] = assay: Antibacterial activity against Proteus vulgaris at 10 mg/ml after 24 hrs by disc diffusion method; type: functional, organism-based
Klebsiella aerogenes [17] = assay: Antibacterial activity against Enterobacter aerogenes at 10 mg/ml after 24 hrs by disc diffusion method; type: functional, organism-based
Salmonella paratyphi [18] = assay: Antibacterial activity against Salmonella paratyphi at 10 mg/ml after 24 hrs by disc diffusion method; type: functional, organism-based; conditions: Salmonella enterica subsp. enterica serovar Paratyphi A
Aspergillus = assay: Antifungal activity against Aspergillus at 10 mg/ml after 72 hrs by disc diffusion method; type: functional, organism-based
Pseudomonas aeruginosa [19] = assay: Antibacterial activity against Pseudomonas aeruginosa at 10 mg/ml after 24 hrs by disc diffusion method; type: functional, organism-based
Candida parapsilosis = assay: Antifungal activity against Candida parapsilosis at 10 mg/ml after 48 hrs by disc diffusion method; type: functional, organism-based
Klebsiella aerogenes [20] = assay: Antibacterial activity against Enterobacter aerogenes at 6.25 to 200 ug/ml after 24 hrs by microwell dilution method; type: functional, organism-based
Micrococcus lylae [21] = assay: Antibacterial activity against Micrococcus lylae at 10 mg/ml after 24 hrs by disc diffusion method; type: functional, organism-based
Candida albicans = assay: Antifungal activity against Candida albicans at 10 mg/ml after 48 hrs by disc diffusion method; type: functional, organism-based
Micrococcus luteus [22] = assay: Antibacterial activity against Micrococcus luteus at 10 mg/ml after 24 hrs by disc diffusion method; type: functional, organism-based
Escherichia coli [23] = assay: Antibacterial activity against Escherichia coli at 6.25 to 200 ug/ml after 24 hrs by microwell dilution method; type: functional, organism-based
T47D = assay: Cytotoxicity against human T47D assessed as cell growth at 10 uM after 48 hrs by SRB assay; type: functional; conditions: read-out: Activity

| SMILES | inhibition (Hepacivirus hominis) | Activity (Pichia membranifaciens) | Activity (Photorhabdus luminescens [1]) | Activity (Micrococcus lylae [2]) | Activity [3] | Activity (Staphylococcus aureus [4]) | Activity (Nakaseomyces glabratus) | Activity [5] | Activity (Kluyveromyces marxianus) | Activity (Staphylococcus cohnii [6]) | Activity (Pseudomonas aeruginosa [7]) | Activity (Salmonella paratyphi [8]) | Activity (Staphylococcus cohnii [9]) | Activity [10] | Activity (Candida tropicalis) | Activity (Micrococcus luteus [11]) | Activity (Escherichia coli [12]) | Activity (Staphylococcus aureus [13]) | Activity (Photorhabdus luminescens [14]) | Activity (Proteus vulgaris [15]) | further results |
| --- | --- | --- | --- | --- | --- | --- | --- | --- | --- | --- | --- | --- | --- | --- | --- | --- | --- | --- | --- | --- | --- |
| CC(C(=O)NNC(=S)NCc1ccccc1)c1ccc(-c2ccccc2)c(F)c1 (stereo not drawn) | 8% | inactive | inactive | inactive | inactive | inactive | inactive | inactive | inactive | inactive | inactive | inactive | inactive | inactive | inactive | inactive | inactive | inactive | inactive | inactive | Activity (Proteus vulgaris [16]): inactive; Activity (Klebsiella aerogenes [17]): inactive; Activity (Salmonella paratyphi [18]): inactive; Activity (Aspergillus): inactive; Activity (Pseudomonas aeruginosa [19]): inactive; Activity (Candida parapsilosis): inactive; Activity (Klebsiella aerogenes [20]): inactive; Activity (Micrococcus lylae [21]): inactive; Activity (Candida albicans): inactive; Activity (Micrococcus luteus [22]): inactive; Activity (Escherichia coli [23]): inactive |
| CC(C(=O)N/N=C/c1c(F)cccc1F)c1ccc(-c2ccccc2)c(F)c1 (stereo not drawn) | 8% | inactive | inactive | inactive | inactive | inactive | inactive | inactive | inactive | inactive | inactive | inactive | inactive | inactive | inactive | inactive | inactive | inactive | inactive | inactive | Activity (Proteus vulgaris [16]): inactive; Activity (Klebsiella aerogenes [17]): inactive; Activity (Salmonella paratyphi [18]): inactive; Activity (Aspergillus): inactive; Activity (Pseudomonas aeruginosa [19]): inactive; Activity (Candida parapsilosis): inactive; growth at 10 µM (T47D): 55.3%; Activity (Klebsiella aerogenes [20]): inactive; Activity (Micrococcus lylae [21]): inactive; Activity (Candida albicans): inactive; Activity (Micrococcus luteus [22]): inactive; Activity (Escherichia coli [23]): inactive |
| CC(C(=O)N/N=C/c1ccccc1F)c1ccc(-c2ccccc2)c(F)c1 (stereo not drawn) | 8% | inactive | inactive | inactive | inactive | inactive | inactive | inactive | inactive | inactive | inactive | inactive | inactive | inactive | inactive | inactive | inactive | inactive | inactive | inactive | Activity (Proteus vulgaris [16]): inactive; Activity (Klebsiella aerogenes [17]): inactive; Activity (Salmonella paratyphi [18]): inactive; Activity (Aspergillus): inactive; Activity (Pseudomonas aeruginosa [19]): inactive; Activity (Candida parapsilosis): inactive; Activity (Klebsiella aerogenes [20]): inactive; Activity (Micrococcus lylae [21]): inactive; Activity (Candida albicans): inactive; Activity (Micrococcus luteus [22]): inactive; Activity (Escherichia coli [23]): inactive |
| CC(C(=O)NNC(=S)Nc1ccccc1)c1ccc(-c2ccccc2)c(F)c1 (stereo not drawn) | 8% | inactive | inactive | inactive | inactive | inactive | inactive | inactive | inactive | inactive | inactive | inactive | inactive | inactive | inactive | inactive | inactive | inactive | inactive | inactive | Activity (Proteus vulgaris [16]): inactive; Activity (Klebsiella aerogenes [17]): inactive; Activity (Salmonella paratyphi [18]): inactive; Activity (Aspergillus): inactive; Activity (Pseudomonas aeruginosa [19]): inactive; Activity (Candida parapsilosis): inactive; Activity (Klebsiella aerogenes [20]): inactive; Activity (Micrococcus lylae [21]): inactive; Activity (Candida albicans): inactive; Activity (Micrococcus luteus [22]): inactive; Activity (Escherichia coli [23]): inactive |
| C=CCN1C(=O)CS/C1=N\NC(=O)C(C)c1ccc(-c2ccccc2)c(F)c1 (stereo not drawn) | 8% | inactive | inactive | inactive | inactive | inactive | inactive | inactive | inactive | inactive | inactive | inactive | inactive | inactive | inactive | inactive | inactive | inactive | inactive | inactive | Activity (Proteus vulgaris [16]): inactive; Activity (Klebsiella aerogenes [17]): inactive; Activity (Salmonella paratyphi [18]): inactive; Activity (Aspergillus): inactive; Activity (Pseudomonas aeruginosa [19]): inactive; Activity (Candida parapsilosis): inactive; Activity (Klebsiella aerogenes [20]): inactive; Activity (Micrococcus lylae [21]): inactive; Activity (Candida albicans): inactive; Activity (Micrococcus luteus [22]): inactive; Activity (Escherichia coli [23]): inactive |
| CC(C(=O)N/N=C/c1ccc([N+](=O)[O-])o1)c1ccc(-c2ccccc2)c(F)c1 (stereo not drawn) | 8% | inactive | inactive | inactive | inactive | inactive | inactive | inactive | inactive | inactive | inactive | inactive | inactive | inactive | inactive | inactive | inactive | inactive | inactive | inactive | Activity (Proteus vulgaris [16]): inactive; Activity (Klebsiella aerogenes [17]): inactive; Activity (Salmonella paratyphi [18]): inactive; Activity (Aspergillus): inactive; Activity (Pseudomonas aeruginosa [19]): inactive; Activity (Candida parapsilosis): inactive; Activity (Klebsiella aerogenes [20]): inactive; Activity (Micrococcus lylae [21]): inactive; Activity (Candida albicans): inactive; Activity (Micrococcus luteus [22]): inactive; Activity (Escherichia coli [23]): inactive |
| CC(C(=O)N/N=C/c1ccc(Cl)cc1)c1ccc(-c2ccccc2)c(F)c1 (stereo not drawn) | 8% | inactive | inactive | inactive | inactive | inactive | inactive | inactive | inactive | inactive | inactive | inactive | inactive | inactive | inactive | inactive | inactive | inactive | inactive | inactive | Activity (Proteus vulgaris [16]): inactive; Activity (Klebsiella aerogenes [17]): inactive; Activity (Salmonella paratyphi [18]): inactive; Activity (Aspergillus): inactive; Activity (Pseudomonas aeruginosa [19]): inactive; Activity (Candida parapsilosis): inactive; Activity (Klebsiella aerogenes [20]): inactive; Activity (Micrococcus lylae [21]): inactive; Activity (Candida albicans): inactive; Activity (Micrococcus luteus [22]): inactive; Activity (Escherichia coli [23]): inactive |
